Legend:
Assay in all cases: microscale thermophoresis (MST)
Assay type in all cases: binding
[1] = molecular target: T1, alpha-enolase (ENO1) (Homo sapiens, UniProt P06733)
T1 construct: His-tagged ENO1 protein

[2] = molecular target: T2, ENO1 (S254A) (Homo sapiens, UniProt P06733, S254A)
T2 construct: His-tagged ENO1 (S254A) protein

[3] = molecular target: T3, pyruvate kinase M (PKM) (Homo sapiens, UniProt P14618)
T3 construct: His-tagged PKM protein
T3 sequence (P14618 2-531): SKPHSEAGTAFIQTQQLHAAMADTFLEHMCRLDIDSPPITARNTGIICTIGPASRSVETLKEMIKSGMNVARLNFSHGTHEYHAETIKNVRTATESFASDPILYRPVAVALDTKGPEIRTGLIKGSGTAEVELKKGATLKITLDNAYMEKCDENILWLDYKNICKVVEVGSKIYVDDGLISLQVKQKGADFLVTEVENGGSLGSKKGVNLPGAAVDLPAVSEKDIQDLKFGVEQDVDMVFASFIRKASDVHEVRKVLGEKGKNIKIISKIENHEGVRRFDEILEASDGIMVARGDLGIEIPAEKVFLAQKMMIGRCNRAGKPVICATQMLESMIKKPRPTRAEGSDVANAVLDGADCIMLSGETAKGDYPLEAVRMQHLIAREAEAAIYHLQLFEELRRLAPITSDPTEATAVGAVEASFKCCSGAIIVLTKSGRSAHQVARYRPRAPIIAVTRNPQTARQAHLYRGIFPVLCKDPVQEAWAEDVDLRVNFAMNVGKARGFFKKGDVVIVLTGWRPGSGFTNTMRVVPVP

T1 sequence (P06733 2-434): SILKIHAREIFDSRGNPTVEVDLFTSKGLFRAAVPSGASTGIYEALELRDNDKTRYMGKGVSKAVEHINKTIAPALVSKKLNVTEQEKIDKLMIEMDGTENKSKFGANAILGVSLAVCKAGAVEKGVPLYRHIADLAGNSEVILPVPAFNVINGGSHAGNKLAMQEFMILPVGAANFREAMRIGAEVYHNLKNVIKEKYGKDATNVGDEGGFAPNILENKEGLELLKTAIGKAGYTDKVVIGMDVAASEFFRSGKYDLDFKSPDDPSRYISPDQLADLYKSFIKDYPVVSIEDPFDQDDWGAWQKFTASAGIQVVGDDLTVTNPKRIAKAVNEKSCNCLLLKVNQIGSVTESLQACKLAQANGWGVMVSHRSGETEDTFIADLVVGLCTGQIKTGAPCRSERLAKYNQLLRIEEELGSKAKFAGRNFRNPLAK
T2 sequence (P06733 2-434 S254A): as the sequence (P06733 2-434) above, with S253A counted along it

- Kd [1]: 0.0401 µM
- Kd [2]: 240 µM
- Kd [3]: 9.32 µM
Structure (SMILES): CCOC(=O)c1nc(-c2ccc(C(F)(F)F)cc2)oc1-c1cccc(C)c1 [KB2764]

From article PMC12508687, “Elucidating the Role and Mechanism of Alpha‐Enolase in Senescent Amelioration via Metabolic Reprogramming” (Cell Proliferation, 2025)
